Assay results as given in patent EP4685149A1, “NOVEL COMPOUND AS ENDOTHELIAL TO MESENCHYMAL TRANSITION (ENDMT) INHIBITOR, AND PHARMACEUTICAL COMPOSITION COMPRISING SAME” (Korea Institute of Radiological & Medical Sciences, priority 2023, dated 2024).
Like-named read-outs stand apart in the source and are kept apart here.

System: human vascular endothelial cell lines
Assay: Inhibition of radiation-induced endothelial cell transition (EndMT), phalloidin immunofluorescence staining
Assay type: cell-based
Conditions: Homo sapiens, Endothelial cell, light or radiation study, 10 uM test substance 1 hour before 10 Gy irradiation, 72 hours after irradiation, relative ratio with IR group (10 Gy alone) as 100%
Method: Test substances (Examples 1 to 45) were treated with a 10 mM DMSO solution at a ratio of 1 µL per 1 mL of cell culture medium to a final concentration of 10 uM, and the test substances were treated 1 hour before irradiation on human vascular endothelial cell lines (Promocell, Germany), and then, it was irradiated at an intensity of 10 Gy. 72 hours after irradiation, the human vascular endothelial cell lines were fixed with 10% formalin, and the experiment was conducted according to the manufacturer's method using phalloidin (Invitrogen, USA) to confirm the cytoskeleton filaments that increase during fibrosis. Phalloidin is a protein that binds to the actin of cytoskeleton filaments, and phalloidin conjugated with FITC fluorescent substance made the cytoskeleton filaments appear green when observed under a microscope.
After treatment with the test substance, the area, length and density of phalloidin were measured by using a confocal microscope, and the relative ratio was expressed with the irradiated group (IR group) that was irradiated with 10 Gy alone as 100% (Table 1).

SMILES	activity at 10 µM (read-out: Palloidin Area)	activity at 10 µM (read-out: Palloidin Intensity)	activity at 10 µM (read-out: Palloidin Length)
COC(=O)c1ccc2c(c1)CC[C@H]2Nc1nc(Cl)nc2c1ncn2[C@@H]1SC[C@@H](O)[C@H]1O [Example 31, Methyl (R)-1-((2-chloro-9-((2R,3R,4S)-3,4-dihydroxytetrahydrothiophen-2-yl)-9H-purin-6-yl)amino)-2,3-dihydro-1H-indene-5-carboxylate]	> 80%	> 80%	> 80%
O[C@@H]1[C@H](O)CS[C@H]1n1cnc2c(N[C@@H]3CCc4ccc(Br)cc43)nc(Cl)nc21 [Example 21, (2R,3R,4S)-2-[2-chloro-6-[[(1R)-6-bromoindan-1-yl]amino]purin-9-yl]tetrahydrothiophene-3,4-diol]	20 to 50%	20 to 50%	20 to 50%
CCC#Cc1nc(N[C@H]2CCc3ccccc32)c2ncn([C@@H]3SC[C@@H](O)[C@H]3O)c2n1 [Example 4, (2R,3R,4S)-2-[2-but-1-ynyl-6-[[(1S)-indan-1-yl]amino]purin-9-yl]tetrahydrothiophene-3,4-diol]	50 to 80%	50 to 80%	50 to 80%
O[C@@H]1[C@H](O)CS[C@H]1n1cnc2c(NC3CCc4ccccc4C3)nc(Cl)nc21 (stereo partly drawn) [Example 35, (2R,3R,4S)-2-(2-chloro-6-((1,2,3,4-tetrahydronaphthalen-2-yl)amino)-9H-purin-9-yl)tetrahydrothiophene-3,4-diol]	> 80%	> 80%	> 80%
O[C@@H]1[C@H](O)CS[C@H]1n1cnc2c(NC3CCCCc4ccccc43)nc(Cl)nc21 (stereo partly drawn) [Example 42, (2R,3R,4S)-2-(2-chloro-6-((6,7,8,9-tetrahydro-5H-benzo[7]annulen-5-yl)amino)-9H-purin-9-yl)tetrahydrothiophene-3,4-diol]	> 80%	> 80%	> 80%
O[C@@H]1[C@H](O)CS[C@H]1n1cnc2c(N[C@@H]3CCc4cc(C(F)(F)F)ccc43)nc(Cl)nc21 [Example 28, (2R,3R,4S)-2-[2-chloro-6-[[(1R)-5-(trifluoromethyl)indan-1-yl]amino]purin-9-yl]tetrahydrothiophene-3,4-diol]	50 to 80%	50 to 80%	> 80%
COc1ccc2c(c1)CC[C@H]2Nc1nc(Cl)nc2c1ncn2[C@@H]1SC[C@@H](O)[C@H]1O [Example 12, (2R,3R,4S)-2-[2-chloro-6-[[(1R)-5-methoxyindan-1-yl]amino]purin-9-yl]tetrahydrothiophene-3,4-diol]	> 80%	> 80%	> 80%
O[C@@H]1[C@H](O)CS[C@H]1n1cnc2c(N[C@@H]3CCc4ccccc43)nc(I)nc21 [Example 44, (2R,3R,4S)-2-(6-(((R)-2,3-dihydro-1H-inden-1-yl)amino)-2-iodo-9H-purin-9-yl)tetrahydrothiophene-3,4-diol]	20 to 50%	20 to 50%	20 to 50%
O[C@@H]1[C@H](O)CS[C@H]1n1cnc2c(N[C@H]3CCCc4ccccc43)nc(Cl)nc21 [Example 40, (2R,3R,4S)-2-(2-chloro-6-(((S)-1,2,3,4-tetrahydronaphthalen-1-yl)amino)-9H-purin-9-yl)tetrahydrothiophene-3,4-diol]	> 80%	> 80%	> 80%
O[C@@H]1[C@H](O)CS[C@H]1n1cnc2c(N[C@@H]3CCc4ccccc43)nc(Cl)nc21 [Example 9, (2R,3R,4S)-2-[2-chloro-6-[[(1R)-indan-1-yl]amino]purin-9-yl]tetrahydrothiophene-3,4-diol]	50 to 80%	50 to 80%	50 to 80%
CCC#Cc1nc(N[C@@H]2CCc3ccccc32)c2ncn([C@@H]3SC[C@@H](O)[C@H]3O)c2n1 [Example 3, (2R,3R,4S)-2-[2-but-1-ynyl-6-[[(1R)-indan-1-yl]amino]purin-9-yl]tetrahydrothiophene-3,4-diol]	> 80%	> 80%	> 80%
N#Cc1cccc2c1CC[C@H]2Nc1nc(Cl)nc2c1ncn2[C@@H]1SC[C@@H](O)[C@H]1O [Example 24, (1R)-1-[[2-chloro-9-[(2R,3R,4S)-3,4-dihydroxytetrahydrothiophen-2-yl]purin-6-yl]amino]indane-4-carbonitrile]	50 to 80%	50 to 80%	50 to 80%
O[C@@H]1[C@H](O)CS[C@H]1n1cnc2c(N[C@@H]3CCCc4ccccc43)nc(Cl)nc21 [Example 39, (2R,3R,4S)-2-(2-chloro-6-(((R)-1,2,3,4-tetrahydronaphthalen-1-yl)amino)-9H-purin-9-yl)tetrahydrothiophene-3,4-diol]	> 80%	> 80%	> 80%
CC#Cc1nc(N[C@H]2CCc3ccccc32)c2ncn([C@@H]3SC[C@@H](O)[C@H]3O)c2n1 [Example 2, (2R,3R,4S)-2-[6-[[(1S)-indan-1-yl]amino]-2-prop-1-ynyl-purin-9-yl]tetrahydrothiophene-3,4-diol]	> 80%	> 80%	> 80%
O[C@@H]1[C@H](O)CS[C@H]1n1cnc2c(N[C@@H]3CCc4cc(Cl)ccc43)nc(Cl)nc21 [Example 18, (2R,3R,4S)-2-[2-chloro-6-[[(1R)-5-chloroindan-1-yl]amino]purin-9-yl]tetrahydrothiophene-3,4-diol]	< 20%	< 20%	< 20%
COc1ccc2c(c1)[C@H](Nc1nc(Cl)nc3c1ncn3[C@@H]1SC[C@@H](O)[C@H]1O)CC2 [Example 13, (2R,3R,4S)-2-[2-chloro-6-[[(1R)-6-methoxyindan-1-yl]amino]purin-9-yl]tetrahydrothiophene-3,4-diol]	50 to 80%	50 to 80%	50 to 80%
O[C@@H]1[C@H](O)CS[C@H]1n1cnc2c(N[C@@H]3Cc4ccccc43)nc(Cl)nc21 [Example 41, (2R,3R,4S)-2-(6-(((R)-bicyclo[4.2.0]octa-1(6),2,4-trien-7-yl)amino)-2-chloro-9H-purin-9-yl)tetrahydrothiophene-3,4-diol]	> 80%	50 to 80%	> 80%
O[C@@H]1[C@H](O)CS[C@H]1n1cnc2c(N[C@@H]3CCc4c(Br)cccc43)nc(Cl)nc21 [Example 19, (2R,3R,4S)-2-[2-chloro-6-[[(1R)-4-bromoindan-1-yl]amino]purin-9-yl]tetrahydrothiophene-3,4-diol]	20 to 50%	20 to 50%	20 to 50%
O[C@@H]1[C@H](O)CS[C@H]1n1cnc2c(N[C@@H]3CCc4c3cccc4C(F)(F)F)nc(Cl)nc21 [Example 23, (2R,3R,4S)-2-[2-chloro-6-[[(1R)-4-(trifluoromethyl)indan-1-yl]amino]purin-9-yl]tetrahydrothiophene-3,4-diol]	> 80%	> 80%	> 80%
O[C@@H]1[C@H](O)CS[C@H]1n1cnc2c(NC3CCc4ccccc43)nc(Cl)nc21 (stereo partly drawn) [Example 8, (2R,3R,4S)-2-[2-chloro-6-(indan-1-ylamino)purin-9-yl]tetrahydrothiophene-3,4-diol]	20 to 50%	20 to 50%	20 to 50%
